Our source for the IC50 and Ki values is ChEMBL document CHEMBL1909046, “DrugMatrix in vitro pharmacology data”.

SMILES strings stand for the structures.

Mitogen-activated protein kinase 3, sequence (P27361 whole entry): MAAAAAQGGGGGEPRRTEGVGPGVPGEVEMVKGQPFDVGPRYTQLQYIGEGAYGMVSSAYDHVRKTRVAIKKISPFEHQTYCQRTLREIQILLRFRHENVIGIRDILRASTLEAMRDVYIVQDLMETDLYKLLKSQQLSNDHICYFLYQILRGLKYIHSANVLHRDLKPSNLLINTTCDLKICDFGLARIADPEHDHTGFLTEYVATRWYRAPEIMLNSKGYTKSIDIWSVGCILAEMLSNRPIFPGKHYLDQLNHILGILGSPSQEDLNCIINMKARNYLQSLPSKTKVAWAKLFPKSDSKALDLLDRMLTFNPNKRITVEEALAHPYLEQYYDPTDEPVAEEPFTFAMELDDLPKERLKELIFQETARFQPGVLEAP

In the first assay the target is T1, B2 bradykinin receptor (Homo sapiens, UniProt P30411). Note: in other assays of this panel Not Active means under 50% inhibition at 10 µM.
T1 sequence (P30411 whole entry): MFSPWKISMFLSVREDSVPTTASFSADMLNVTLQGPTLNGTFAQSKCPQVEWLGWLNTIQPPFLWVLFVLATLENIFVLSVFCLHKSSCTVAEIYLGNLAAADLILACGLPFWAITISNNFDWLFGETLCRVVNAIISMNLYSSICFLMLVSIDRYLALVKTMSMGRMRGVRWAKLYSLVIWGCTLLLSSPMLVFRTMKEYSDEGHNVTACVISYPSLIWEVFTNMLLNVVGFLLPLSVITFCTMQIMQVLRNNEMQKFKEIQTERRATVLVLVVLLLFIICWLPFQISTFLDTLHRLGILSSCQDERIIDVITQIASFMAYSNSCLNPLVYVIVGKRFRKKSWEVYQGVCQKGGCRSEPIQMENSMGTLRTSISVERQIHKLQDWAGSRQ
Test: not given
Type of assay: cell membranes, Membrane. To be noted: chem-1.
For the compound `CC1(C)O[C@@H]2C[C@H]3[C@@H]4C[C@H](F)C5=CC(=O)CC[C@]5(C)[C@H]4[C@@H](O)C[C@]3(C)[C@]2(C(=O)CO)O1` [FLURANDRENOLIDE], the IC50 result is “Not Active”.

Regarding `CN(C)c1ccc(C(=C2C=CC(=[N+](C)C)C=C2)c2ccc(N(C)C)cc2)cc1.[Cl-]` [GENTIAN VIOLET], the IC50 entry is “Not Active”.

Regarding `Cc1ccc(S(=O)(=O)NC(=O)NN2CC3CCCC3C2)cc1` (stereo not drawn) [GLICLAZIDE], the IC50 entry is “Not Active”.

The target of the next assay is Platelet-activating factor receptor (Homo sapiens, UniProt P25105). Note: in other assays of this panel Not Active means under 50% inhibition at 10 µM.
Platelet-activating factor receptor, sequence (P25105 whole entry): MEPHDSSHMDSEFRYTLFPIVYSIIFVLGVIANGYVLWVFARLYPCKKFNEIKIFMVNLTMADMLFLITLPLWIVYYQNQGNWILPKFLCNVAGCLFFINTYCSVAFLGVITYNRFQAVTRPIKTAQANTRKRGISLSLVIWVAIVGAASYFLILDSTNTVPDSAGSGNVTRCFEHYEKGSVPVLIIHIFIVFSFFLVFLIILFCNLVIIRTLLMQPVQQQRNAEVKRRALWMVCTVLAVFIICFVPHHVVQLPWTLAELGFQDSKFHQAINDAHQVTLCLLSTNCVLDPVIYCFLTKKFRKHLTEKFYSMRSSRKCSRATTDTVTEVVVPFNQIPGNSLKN
Test: not given
Conditions: not given
The format is tissue-based.
Regarding `CC1(C)O[C@@H]2C[C@H]3[C@@H]4C[C@H](F)C5=CC(=O)CC[C@]5(C)[C@H]4[C@@H](O)C[C@]3(C)[C@]2(C(=O)CO)O1` [FLURANDRENOLIDE], the IC50 result was “Not Active”.

For the compound `CN(C)c1ccc(C(=C2C=CC(=[N+](C)C)C=C2)c2ccc(N(C)C)cc2)cc1.[Cl-]` [GENTIAN VIOLET], the IC50 result is “Not Active”.

`Cc1ccc(S(=O)(=O)NC(=O)NN2CC3CCCC3C2)cc1` (stereo not drawn) [GLICLAZIDE]: the IC50 entry is given as “Not Active”.

Another assay addresses T2, C-C chemokine receptor type 4 (Homo sapiens, UniProt P51679).
T2 sequence (P51679 whole entry): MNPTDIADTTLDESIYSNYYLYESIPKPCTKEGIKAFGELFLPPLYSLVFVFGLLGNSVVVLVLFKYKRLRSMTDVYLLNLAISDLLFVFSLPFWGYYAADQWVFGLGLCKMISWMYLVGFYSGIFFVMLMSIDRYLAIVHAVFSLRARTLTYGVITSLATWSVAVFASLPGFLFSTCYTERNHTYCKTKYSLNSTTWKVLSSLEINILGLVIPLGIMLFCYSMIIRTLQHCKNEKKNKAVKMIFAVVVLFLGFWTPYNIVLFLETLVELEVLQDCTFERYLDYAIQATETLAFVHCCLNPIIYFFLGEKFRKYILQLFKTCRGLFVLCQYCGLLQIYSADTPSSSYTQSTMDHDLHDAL
Test: not given
Type of assay: cell membranes, Membrane. To be noted: chem-1.
For the compound `CC1(C)O[C@@H]2C[C@H]3[C@@H]4C[C@H](F)C5=CC(=O)CC[C@]5(C)[C@H]4[C@@H](O)C[C@]3(C)[C@]2(C(=O)CO)O1` [FLURANDRENOLIDE], the IC50 result is listed as “Not Active”.

With `CN(C)c1ccc(C(=C2C=CC(=[N+](C)C)C=C2)c2ccc(N(C)C)cc2)cc1.[Cl-]` [GENTIAN VIOLET], the IC50 entry is “Not Active”.

With `Cc1ccc(S(=O)(=O)NC(=O)NN2CC3CCCC3C2)cc1` (stereo not drawn) [GLICLAZIDE], the IC50 result is given as “Not Active”.

The next assay concerns the target T3, Angiotensin-converting enzyme (Oryctolagus cuniculus, UniProt P12822).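 Note: enzymatic inhibition of angiotensin-converting enzyme measured with FAPGG as the substrate; in other assays of this panel Not Active means under 50% inhibition at 10 µM.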
T3 sequence (P12822 whole entry): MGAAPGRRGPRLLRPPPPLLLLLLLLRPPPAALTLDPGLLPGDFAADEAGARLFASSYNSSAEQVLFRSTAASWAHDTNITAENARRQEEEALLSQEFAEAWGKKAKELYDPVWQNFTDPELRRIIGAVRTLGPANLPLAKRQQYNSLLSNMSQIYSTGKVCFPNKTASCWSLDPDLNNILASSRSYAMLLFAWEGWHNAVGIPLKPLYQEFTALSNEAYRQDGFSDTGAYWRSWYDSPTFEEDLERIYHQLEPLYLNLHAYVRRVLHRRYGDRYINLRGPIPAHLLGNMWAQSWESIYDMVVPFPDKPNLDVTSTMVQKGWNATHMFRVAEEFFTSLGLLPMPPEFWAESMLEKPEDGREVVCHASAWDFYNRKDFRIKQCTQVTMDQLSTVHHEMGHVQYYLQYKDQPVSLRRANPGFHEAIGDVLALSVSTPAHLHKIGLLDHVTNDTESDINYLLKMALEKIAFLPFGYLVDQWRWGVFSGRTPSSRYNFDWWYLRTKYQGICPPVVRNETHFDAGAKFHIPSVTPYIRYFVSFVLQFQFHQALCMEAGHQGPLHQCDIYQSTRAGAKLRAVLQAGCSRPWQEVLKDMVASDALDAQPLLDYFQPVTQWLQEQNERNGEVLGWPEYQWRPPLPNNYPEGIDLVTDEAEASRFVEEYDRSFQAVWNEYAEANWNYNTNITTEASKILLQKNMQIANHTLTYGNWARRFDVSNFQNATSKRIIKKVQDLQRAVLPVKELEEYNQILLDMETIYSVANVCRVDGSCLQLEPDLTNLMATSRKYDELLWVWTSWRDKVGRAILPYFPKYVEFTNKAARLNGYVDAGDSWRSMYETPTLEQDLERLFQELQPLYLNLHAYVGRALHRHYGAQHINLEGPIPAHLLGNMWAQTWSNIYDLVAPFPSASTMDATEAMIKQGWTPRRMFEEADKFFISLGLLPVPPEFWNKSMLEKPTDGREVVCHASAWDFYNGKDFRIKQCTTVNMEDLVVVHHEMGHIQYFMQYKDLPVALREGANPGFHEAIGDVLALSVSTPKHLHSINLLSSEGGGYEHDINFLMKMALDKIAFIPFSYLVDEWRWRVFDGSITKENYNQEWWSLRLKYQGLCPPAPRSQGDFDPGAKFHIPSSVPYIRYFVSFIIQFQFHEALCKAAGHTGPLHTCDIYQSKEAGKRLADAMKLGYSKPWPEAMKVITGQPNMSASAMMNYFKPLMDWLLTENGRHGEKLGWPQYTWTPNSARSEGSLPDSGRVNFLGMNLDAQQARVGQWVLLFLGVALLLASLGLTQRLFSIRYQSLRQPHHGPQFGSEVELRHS
Test: not given
Type of assay: tissue-based, Lung.
Conditions: not given
`CC1(C)O[C@@H]2C[C@H]3[C@@H]4C[C@H](F)C5=CC(=O)CC[C@]5(C)[C@H]4[C@@H](O)C[C@]3(C)[C@]2(C(=O)CO)O1` [FLURANDRENOLIDE]: the IC50 result was “Not Active”.

As for `CN(C)c1ccc(C(=C2C=CC(=[N+](C)C)C=C2)c2ccc(N(C)C)cc2)cc1.[Cl-]` [GENTIAN VIOLET], the IC50 entry is given as “Not Active”.

Take `Cc1ccc(S(=O)(=O)NC(=O)NN2CC3CCCC3C2)cc1` (stereo not drawn) [GLICLAZIDE]: the IC50 result is reported as “Not Active”.

Another assay addresses Mitogen-activated protein kinase 3 (Homo sapiens, UniProt P27361). The experiment in a line: DRUGMATRIX: Protein Serine/Threonine Kinase, ERK1 enzyme inhibition (substrate: Myelin Basic Protein). On the set-up: species or system Escherichia coli. To be noted: Not Active = under 50% inhibition at 10 µM.
On to `CC1(C)O[C@@H]2C[C@H]3[C@@H]4C[C@H](F)C5=CC(=O)CC[C@]5(C)[C@H]4[C@@H](O)C[C@]3(C)[C@]2(C(=O)CO)O1` [FLURANDRENOLIDE], for which the IC50 result is “Not Active”.

For the compound `CN(C)c1ccc(C(=C2C=CC(=[N+](C)C)C=C2)c2ccc(N(C)C)cc2)cc1.[Cl-]` [GENTIAN VIOLET], the IC50 result is “Not Active”.

`Cc1ccc(S(=O)(=O)NC(=O)NN2CC3CCCC3C2)cc1` (stereo not drawn) [GLICLAZIDE]: the IC50 result is “Not Active”.

Tested on in another assay: not listed separately
Put plainly: DRUGMATRIX: Leukotriene, BLT (LTB4) radioligand binding (ligand: [3H]LTB4). The format is cell membranes, Membrane. To be noted: u-937; Not Active = under 50% inhibition at 10 µM.
Take `CC1(C)O[C@@H]2C[C@H]3[C@@H]4C[C@H](F)C5=CC(=O)CC[C@]5(C)[C@H]4[C@@H](O)C[C@]3(C)[C@]2(C(=O)CO)O1` [FLURANDRENOLIDE]: the IC50 entry is recorded as “Not Active” and the Ki entry is listed as “Not Active”.

`CN(C)c1ccc(C(=C2C=CC(=[N+](C)C)C=C2)c2ccc(N(C)C)cc2)cc1.[Cl-]` [GENTIAN VIOLET]: the IC50 result is given as “Not Active” and the Ki result was “Not Active”.

As to `Cc1ccc(S(=O)(=O)NC(=O)NN2CC3CCCC3C2)cc1` (stereo not drawn) [GLICLAZIDE], the IC50 entry is “Not Active” and the Ki entry is recorded as “Not Active”.

Tested on in another assay: not listed separately
The experiment in a line: DRUGMATRIX: Sodium/nucleoside co-transporter radioligand binding (ligand: nitrobenzylthioinosine). Type of assay: cell membranes, Cavia porcellus, Dunkin-Hartley, Cerebral cortex, Membrane. To be noted: Not Active = under 50% inhibition at 10 µM.
With `CC1(C)O[C@@H]2C[C@H]3[C@@H]4C[C@H](F)C5=CC(=O)CC[C@]5(C)[C@H]4[C@@H](O)C[C@]3(C)[C@]2(C(=O)CO)O1` [FLURANDRENOLIDE], the IC50 result is “Not Active” and the Ki result is “Not Active”.

As for `CN(C)c1ccc(C(=C2C=CC(=[N+](C)C)C=C2)c2ccc(N(C)C)cc2)cc1.[Cl-]` [GENTIAN VIOLET], the IC50 entry is “Not Active” and the Ki entry was “Not Active”.

On to `Cc1ccc(S(=O)(=O)NC(=O)NN2CC3CCCC3C2)cc1` (stereo not drawn) [GLICLAZIDE], for which the IC50 result is on record as “Not Active” and the Ki entry was “Not Active”.

A further assay addresses T4, Type-2 angiotensin II receptor (Homo sapiens, UniProt P50052).
T4 sequence (P50052 whole entry): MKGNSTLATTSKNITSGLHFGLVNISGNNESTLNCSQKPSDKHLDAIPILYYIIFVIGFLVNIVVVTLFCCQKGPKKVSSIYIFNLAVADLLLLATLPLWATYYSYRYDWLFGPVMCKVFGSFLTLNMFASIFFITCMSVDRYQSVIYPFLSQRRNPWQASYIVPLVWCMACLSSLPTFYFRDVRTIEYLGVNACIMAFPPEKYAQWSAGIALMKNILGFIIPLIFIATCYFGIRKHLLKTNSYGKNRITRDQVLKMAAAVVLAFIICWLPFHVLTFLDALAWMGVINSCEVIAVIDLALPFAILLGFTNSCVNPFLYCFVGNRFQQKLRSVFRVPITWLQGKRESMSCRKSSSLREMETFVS
Test: not given
To be noted: cho-k1. The format is cell-based.
As for `CC1(C)O[C@@H]2C[C@H]3[C@@H]4C[C@H](F)C5=CC(=O)CC[C@]5(C)[C@H]4[C@@H](O)C[C@]3(C)[C@]2(C(=O)CO)O1` [FLURANDRENOLIDE], the IC50 result is recorded as “Not Active”.

Take `CN(C)c1ccc(C(=C2C=CC(=[N+](C)C)C=C2)c2ccc(N(C)C)cc2)cc1.[Cl-]` [GENTIAN VIOLET]: the IC50 entry was “Not Active”.

Consider `Cc1ccc(S(=O)(=O)NC(=O)NN2CC3CCCC3C2)cc1` (stereo not drawn) [GLICLAZIDE], for which the IC50 result is given as “Not Active”.

In a further assay the target is Aldo-keto reductase family 1 member B1 (Rattus norvegicus, UniProt P07943). The experiment in a line: biochemical. The format is tissue-based, Lens of camera-type eye.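 Note: inhibition of aldose reductase enzyme activity, measured with DL-glyceraldehyde as the substrate; in other assays of this panel Not Active means under 50% inhibition at 10 µM.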
Conditions: not given
On to `CC1(C)O[C@@H]2C[C@H]3[C@@H]4C[C@H](F)C5=CC(=O)CC[C@]5(C)[C@H]4[C@@H](O)C[C@]3(C)[C@]2(C(=O)CO)O1` [FLURANDRENOLIDE], for which the IC50 result is reported as “Not Active”.

Take `CN(C)c1ccc(C(=C2C=CC(=[N+](C)C)C=C2)c2ccc(N(C)C)cc2)cc1.[Cl-]` [GENTIAN VIOLET]: the IC50 entry is listed as “Not Active”.

For `Cc1ccc(S(=O)(=O)NC(=O)NN2CC3CCCC3C2)cc1` (stereo not drawn) [GLICLAZIDE], the IC50 result is “Not Active”.
